The record followed here is US9422308B2, “Derivatives of docosahexaenoylethanolamide and uses thereof” (The United States of America, as represented by the …, priority 2012, dated 2016).

The subject of one data set is cortical neurons. Put plainly: neurite growth of embryonic mouse neurons (total neurite length/neuron, MAP2 immunostaining). Type of data set: cell-based. The protocol: To obtain embryonic mouse neurons for analysis, pregnant female mice were killed by cervical dislocation after exposure to CO2 inhalation. Embryonic neurons were prepared from E18 or P0 mouse hippocampi or cortex and cultured as described previously (Calderon and Kim, J. Neurochem., 90(4):979-88 (2004), errata in J Neurochem., September; 90(6):1540 (2004)), with slight modification. Briefly, hippocampi or cotices were dissected and dissociated by a method using either 0.25% trypsin (Gibco Invitrogen Corporation, Grand Island, N.Y.) in Hank's balanced salt solution (HBSS) or papain (20-30 U/mL) in dissociation media containing cysteine at 37° C. for 15 min. After the dissociation solution was aspirated off, cells were washed with same volume of HBSS, suspended in neurobasal medium (Gibco) containing 2% B27 supplement (Gibco), 1% glutamine/glutamax mix (1:4) (Gibco), 100 U/ml penicillin (Gibco) and 100 μg/ml streptomycin (Gibco), and seeded on poly-D-lysine chambered slides (Lab-Tek, Naperville, Ill.) at a density of 30,000 cells/cm^2. On the second day after seeding, the cells were treated with fatty acids, synaptamide or one of Compounds 1-50 for 48 h. Docosahexaenoic acid (DHA) and oleic acid (OA) were complexed with fatty acid-free bovine serum albumin (BSA; Sigma, St Louis, Mo.) in the presence of α-tocopherol (Sigma) under an argon atmosphere and darkness to prevent oxidation of the fatty acids. The mixture was mixed with fresh Neurobasal medium containing B27 supplement, glutamine/glutamax mix and antibiotics. Final concentrations of α-tocopherol and BSA in the culture medium were 40 μM and 0.01%, respectively. Alternatively, DHA, OA, synaptamide, or one of Compounds 1-50 were dissolved in DMSO and applied directly together with α-tocopherol. In such case, the final concentration of DMSO is less than 0.005%. All stock solutions were aliquoted under argon and stored at −70° C.
Cells were fixed with […] (Sigma) in PBS (pH 7.4) for 30 min. After permeabilization with 0.1% Triton X-100 (Sigma), cells were blocked for 1 h at 37° C. with PBS containing 10% goat serum (Gibco), and then incubated with the primary antibody against microtubule-associated protein (MAP2, mouse monoclonal 1:250; Sigma). After washing with PBS, cells were incubated with the corresponding Cy2-, Cy3-conjugated secondary antibody (Jackson Immunoresearch Laboratories Inc., West Grove, Pa.). For the nuclear staining, 0.06% 4,6-Diamidino-2-Phenylindole (Sigma) was used. After immunostaining, images were collected using an inverted motorized 1×81 Olympus (Melville, N.Y.) and the neurite length was analyzed with Metamorph software (Molecular Devices Corporation, Downingtown, Pa.). To minimize bias, neurons were evaluated blindly without the knowledge of sample identity. Four to six fields/well were chosen at random and only non-clustered neurons were evaluated to ensure the precision of the measurements. From each well, over 100 neurons were evaluated at 20× magnification for total neurite length/neuron. The data were obtained from triplicate wells and the experiments were repeated at least three times.
FIG. 2 provides graphical results of the data shown in Table 2, expressed as total neurite length per neuron. FIG. 3 provides graphical results of these experiments for compounds 11-50 (having designations as provided in Table 1, above), expressed as relative neurite length as compared to untreated controls. FIG. 4 provides graphical results of these experiments for compounds 1-10 (having designations as provided in Table 1, above), as applied to hippocampal neurons.
An additional assay was performed in which Compounds (A8), 4(A10), and 7(A9) were applied at varying dosages (from 10^−5 nM to 10 nM; 10^−5 nM, 10^−4 nM, 10^−2 nM, 0.1 nM, 1 nM, and 10 nM) as compared to DHA, synaptamide, and oleic acid. Neurite growth was measured at each dosage. Results of this assay are provided at FIG. 1.

In another data set the target is T1, FAAH (Homo sapiens, UniProt O00519).
T1 sequence (O00519 1-579): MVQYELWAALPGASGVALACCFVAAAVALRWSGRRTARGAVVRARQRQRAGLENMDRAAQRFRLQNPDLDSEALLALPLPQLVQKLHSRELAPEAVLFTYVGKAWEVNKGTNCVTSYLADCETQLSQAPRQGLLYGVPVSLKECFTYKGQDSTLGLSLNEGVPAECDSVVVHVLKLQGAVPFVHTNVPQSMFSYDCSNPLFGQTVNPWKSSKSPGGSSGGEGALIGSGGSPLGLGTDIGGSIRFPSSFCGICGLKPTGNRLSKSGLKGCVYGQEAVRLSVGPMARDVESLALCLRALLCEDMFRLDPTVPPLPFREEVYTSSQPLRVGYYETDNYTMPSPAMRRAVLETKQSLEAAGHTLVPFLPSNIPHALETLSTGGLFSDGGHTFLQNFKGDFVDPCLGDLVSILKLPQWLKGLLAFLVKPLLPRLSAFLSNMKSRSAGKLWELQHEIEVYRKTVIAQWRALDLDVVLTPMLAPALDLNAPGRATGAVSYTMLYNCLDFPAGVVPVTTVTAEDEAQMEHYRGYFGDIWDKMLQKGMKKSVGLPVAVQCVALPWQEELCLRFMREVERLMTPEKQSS
Put plainly: time course FAAH enzyme assay. Format: in vitro ADME. The note with it: for % remaining: 1 mM, pH 9. How it is done:
Method development: The signal was optimized for each compound by ESI positive or negative ionization mode. A MS2 SIM scan was used to optimize the precursor ion and a product ion analysis was used to identify the best fragment for analysis and to optimize the collision energy.
Analysis: Samples were analyzed by LC/MS/MS using a API 3000 coupled with an Shimadzu HPLC and a CTC PAL chilled autosampler, all […] controlled by Analyst software (ABI). After separation on a C18 reverse phase HPLC column (Agilent, Waters, or equivalent). Mobile phase A was 0.1% AcOH in water. Mobile phase B was 0.1% AcOH in methanol. The flow rate was 0.6 mL/min. The gradient program included a 0.5 min hold at 30% B (the starting conditions), followed by a gradient to 100% B over 2.5 min and a 1 min hold at 100% B. The column was then returned to starting conditions and equilibrated over 1.25 min.
Assay Protocol: Assays were performed at 37° C. at pH=9.0 and involved the use of 0.1 U of FAAH. […] Reaction was terminated after an appropriate time by using protein precipitation treatment with acetonitrile (3:1, v/v).

On to `CC/C=C\C/C=C\C/C=C\C/C=C\C/C=C\C/C=C\CCC(=O)NCC(C)(C)O` [Compound 1, (4Z,7Z,10Z,13Z,16Z,19Z)—N-(2-hydroxy-2-methylpropyl)docosa-4,7,10,13,16,19-hexaenamide], for which the “Neurite Length/Neuron (mean)” value in the data set with cortical neurons (cortical neurons, 10 nM (FIG. 2), 48 h) is listed as 41.3 μm. Besides, the “effect with respect to cortical neurite growth as compared to DHA” value in the data set on cortical neurons (cortical neurons, FIGS. 1, 2) is on record as “superior effect”. For the same molecule, the “dosage at which activity is exhibited as compared to DHA and synaptamide” value in the data set on cortical neurons (dosages 10^-5 nM to 10 nM, FIG. 1) is on record as “activity at significantly lower dosages”. For the same molecule, the “susceptibility to hydrolysis by FAAH” value on FAAH was “less susceptible to hydrolysis by FAAH than synaptamide or AEA”. Besides, the figures for the “% remaining” value at FAAH (0 h), at FAAH (0.5 h) and at FAAH (1 h) were 99%, 101% and 85%, respectively.
